Literature values as cited in patent US20260207569A1, “LPA1 ANTAGONISTS FOR TREATING INTERSTITIAL LUNG DISEASE” (Bristol-Myers Squibb Company, priority 2022, published 2026).

Columns and labels:
patients with IPF = conditions: cited from earlier work
patients with PPF = conditions: 52-week study period; cited from earlier work

| SMILES | Effect on decline in lung function (patients with IPF) | Progression of lung fibrosis (annual rate of decline in FVC) vs placebo (patients with PPF) |
| --- | --- | --- |
| COC(=O)c1ccc2c(c1)NC(=O)/C2=C(\Nc1ccc(N(C)C(=O)CN2CCN(C)CC2)cc1)c1ccccc1 [nintedanib] | significantly reduce the decline in lung function | slower progression of lung fibrosis than those who received placebo |
| Cc1ccc(=O)n(-c2ccccc2)c1 [pirfenidone] | significantly reduce the decline in lung function |  |
